The values below come from patent publication US20230085307A1, “PYRIDAZINONE COMPOUND AND HERBICIDE” (NISSAN CHEMICAL CORPORATION, priority 2019, published 2023).

By melting point is commonly meant the temperature, or range, at which the solid turns liquid.

The compound `COc1ccccc1-c1sc2ccc(I)cc2c1-c1c(OC)c(C)nn(C)c1=O` [Compound No. 2-131, 4-(5-iodo-2-(2-methoxyphenyl)benzo[b]thiophen-3-yl)-5-methoxy-2,6-dimethylpyridazin-3(2H)-one] gave a melting point of 161 to 163 °C.
